Earlier results as cited in US20060062853A1 (Medical Research Institute, priority 2004, published 2006).

Legend:
[1] = such as juices
[2] = not given; remark: listed apart in the source

## CN(CC(=O)O)C(=N)N [creatine, N-(aminoiminomethyl)-N-methylglycine]
other
  half-life in blood plasma: 1 to 1.5 h
[1]
  stability in acidic solutions: not stable
[2]; 70 kg male
  creatine lost from the cell: approximately 2 grams per day
[2]; skeletal muscle
  loss of creatine from skeletal muscle: about 3 % per day
